Test results taken from patent US12433909B2, “Formulations of cyclic macromolecule-based nanoparticles encapsulating small molecules” (Board of Regents of The University of Texas System, priority 2019, dated 2025).

Key:
[1] = experimental drug loading in CDN nanoparticles, quantified by absorbance; type: physicochemical; settings: for drug loading in CDNs 1-3: theoretical loading of 10% (w/w)
Method: Panobinostat-loaded nanoparticles were formulated by doping a given concentration of the drug with CDN in 2.5 vol % DMSO-aqueous medium. Panobinostat was added at different theoretical loadings, and the amount of panobinostat incorporated into the network after thorough washing was quantified by absorbance.
An aqueous dispersion (2.0 mL) of blank CDN nanoparticles (10 mg/mL) was doped with DMSO (50 uL) solution of panobinostat (40 mg/mL; 10% theoretical loading). The aqueous dispersion was left to agitate for 18 h, and subjected to concentration via ultrafiltration through Amicon Ultra-15 centrifugal filters (3 kDa MWCO, […]) for 4, 20 mins spins at 5000 RCF. Aliquots were frozen and lyophilized for later studies.
Drug loading was quantified by absorbance ([…] for quisinostat, panobinostat and dacinostat; 285 nm for givinostat; 365 nm for camptothecin; 550 nm for Nile Red) on a Tecan plate reader. Lyophilized nanoparticles were dissolved at 5 mg/ml in DMSO. Samples were plated in triplicate ([…], nanoparticles and 10 μL DMSO per well) in a clear, flat bottom 96-well assay plate. A control curve was constructed in technical triplicate by adding 40 μL blank nanoparticles per well and spiking with 10 μL of known drug concentration in DMSO. Experimental drug loading was calculated as mass of drug/mass of nanoparticles (w/w %). 40 μL of bortezomib loaded nanoparticles (5 mg/ml aqueous solution) were extracted with 100 μL of ethylacetate. The ethylacetate layer was collected and dried under nitrogen. The contents were dissolved in 40 μL of DMSO and plated in triplicate. A control curve was constructed in technical triplicate by spiking with 10 μL of known drug concentration in DMSO. Absorbance was measured at 285 nm. Experimental drug loading was calculated as mass of drug/mass of nanoparticles (w/w %).

GL261 cells = assay: in vitro GL261 cell viability assay (CellTiter-Glo); type: cell-based, murine; settings: 72 hours of incubation, CDN-4 21% drug loaded
Method: For IC50 experiments, GL261 cells were seeded at […] into 96 well plates containing Dulbecco's Modified Eagle Medium (DMEM) and 10% Fetal Bovine Serum (FBS). Cells were given 4 hours to adhere prior to drug treatments. Free panobinostat, drug-loaded and blank CDN-4 (21% drug loaded) were dispersed in 2.5% DMSO in cell culture media at 10 mg/mL drug concentration. Equivalent doses were added to the 96 well plates at 16 serial dilutions with concentrations from 0-70 μM and incubated at 37° C. with 5% CO2 for 72 hours. Cell viability was determined with an IC50 value obtained from a CellTiter-Glo Luminescence assay and calculated using GraphPad Prism (San Diego, CA USA). For uptake experiments, GL261 cells were seeded at 90,000 cells/1 mL into 48 well plates containing DMEM and 10% FBS. Panobinostat loaded CDN-4 nanoparticles (250 ug) were incubated with cells for 48 hours, after which cells were thoroughly washed, fixed, and counterstained with DAPI. Images were collected on an upright Nilkon Ti2 microscope.

[2] = mouse, in vivo
Method: All animal procedures were approved by the Institutional Animal Care and Use Committee at University of Texas Health Science at Houston in accordance with all relevant guidelines. Healthy, female NSG mice were used for in vivo experiments. CDN nanoparticles were administered by direct infusion into the cisternal magna. Briefly, mice were anesthetized with isoflurane (2%) and mounted on a stereotaxic frame (Kopf Instruments, Tujunga, CA, USA). With the head tilted forward, an incision was made across the back of the neck and muscles were gentle retracted to expose the atlanto-occipal membrane. A Hamilton syringe (29 gauge needle, 30° bevel tip) in a 2 uL volume delivered over 1 minute at an injection dept of 1 mm. The needle was left in place for an additional 2 minutes to prevent backflow. All animals received a subcutaneous injection of buprenorphine (1 mg/kg) prior to surgery, and other analgesics to control pain. For MTD studies, panobinostat loaded CDN-4 nanoparticles were administered at increasing concentrations. […] For pharmacokinetic studies, mice received CDN-4 nanoparticles at a dose of 560 ug panobinostat and euthanized at specified time points (1, 4, 8, 24, and 48 hours after nanoparticle administration, n=5 mice per time point). One mouse in the 24 hour time point died during surgery, leaving n=4 for that experimental group. […]

[3] = background statement; cited from earlier work

## O=C(/C=C/c1ccc(CN(CCO)CCc2c[nH]c3ccccc23)cc1)NO [dacinostat]
[1]
  drug loading in CDNs 1-3: loaded particularly well

## CC(C)C[C@H](NC(=O)[C@H](Cc1ccccc1)NC(=O)c1cnccn1)B(O)O [bortezomib]
[1]
  drug loading in CDNs 1-3: loaded particularly well

## CCN(CC)Cc1ccc2cc(COC(=O)Nc3ccc(C(=O)NO)cc3)ccc2c1 [givinostat]
[1]
  drug loading in CDNs 1-3: loaded particularly well

## Cc1[nH]c2ccccc2c1CCNCc1ccc(/C=C/C(=O)NO)cc1 [non-CDN-formulated Pb]
GL261 cells
  IC50: 230 nM

## Cn1cc(CNCC2CCN(c3ncc(C(=O)NO)cn3)CC2)c2ccccc21 [quisinostat]
[1]
  drug loading in CDNs 1-3: loaded particularly well

## Nc1ccn([C@@H]2O[C@H](CO)[C@@H](O)[C@@H]2O)c(=O)n1 [cytarabine]
[1]; control hydrophilic drug, data not shown
  experimental loading with all the CDNs: poor experimental loading

## Cc1[nH]c2ccccc2c1CCNCc1ccc(/C=C/C(=O)NO)cc1 [panobinostat]
[2]
  panobinostat in plasma: undetectable
[3]
  water solubility: poorly water soluble
GL261 cells; Mus musculus, GL261
  IC50: 170 nM
